Test [1] deals with T1, Peroxisome proliferator-activated receptor alpha (Homo sapiens, UniProt Q07869).
T1 sequence (Q07869 whole entry): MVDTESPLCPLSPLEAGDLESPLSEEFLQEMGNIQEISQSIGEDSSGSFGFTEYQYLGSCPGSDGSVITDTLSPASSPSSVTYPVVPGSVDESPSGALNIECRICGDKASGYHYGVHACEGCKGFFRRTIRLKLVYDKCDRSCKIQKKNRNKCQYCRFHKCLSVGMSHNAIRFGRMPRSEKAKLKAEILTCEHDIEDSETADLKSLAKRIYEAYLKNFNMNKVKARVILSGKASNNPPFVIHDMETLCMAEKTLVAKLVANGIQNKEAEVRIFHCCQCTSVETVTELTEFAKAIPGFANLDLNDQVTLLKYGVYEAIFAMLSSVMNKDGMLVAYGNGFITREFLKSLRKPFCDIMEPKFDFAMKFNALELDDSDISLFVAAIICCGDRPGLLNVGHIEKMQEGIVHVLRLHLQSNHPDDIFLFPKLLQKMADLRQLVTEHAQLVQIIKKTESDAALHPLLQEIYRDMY
Description: Transactivation activity for human Peroxisome proliferator activated receptor alpha.

In test [2] the target is T2, Peroxisome proliferator-activated receptor alpha (Mus musculus, UniProt P23204).
T2 sequence (P23204 whole entry): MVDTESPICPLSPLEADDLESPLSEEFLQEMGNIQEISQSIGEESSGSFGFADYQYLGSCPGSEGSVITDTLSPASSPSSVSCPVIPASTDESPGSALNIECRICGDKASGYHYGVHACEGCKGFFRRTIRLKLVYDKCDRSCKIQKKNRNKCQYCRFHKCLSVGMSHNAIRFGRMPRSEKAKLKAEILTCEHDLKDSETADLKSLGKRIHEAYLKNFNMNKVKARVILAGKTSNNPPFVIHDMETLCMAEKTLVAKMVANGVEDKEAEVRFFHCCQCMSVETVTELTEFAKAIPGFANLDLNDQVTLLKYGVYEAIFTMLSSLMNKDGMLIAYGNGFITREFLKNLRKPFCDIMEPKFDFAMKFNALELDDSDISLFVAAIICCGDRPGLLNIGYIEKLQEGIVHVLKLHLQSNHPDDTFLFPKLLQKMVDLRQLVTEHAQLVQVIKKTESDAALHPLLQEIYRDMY
Briefly: Transactivation activity for mouse Peroxisome proliferator activated receptor alpha.

In test [3] the target is T1, Peroxisome proliferator-activated receptor alpha. Briefly: In vitro inhibition of human Peroxisome proliferator activated receptor alpha.
Test [4] deals with T2, Peroxisome proliferator-activated receptor alpha. Briefly: In vitro inhibition of mouse Peroxisome proliferator activated receptor alpha.
For a further test, the system named is Mus musculus. Briefly: Effect on level of triglyceride at a dose of 3 mg/kg in mice treated for 7 days. In kind it is functional.

For the compound `Cc1oc(-c2ccccc2)nc1CCOc1ccc(CC(C)(Oc2ccc(C(C)(C)C)cc2)C(=O)O)cc1` (centres undefined), the EC50 in test [1] was determined as 0.011 µM; in test [2] it was 0.211 µM. In addition, the IC50 in test [3] amounted to 0.149 µM; in test [4] it was 0.515 µM.

For `Cc1oc(-c2cccc(-c3ccccc3)c2)nc1CCOc1ccc(CC(C)(Oc2ccccc2)C(=O)O)cc1` (centres undefined), the EC50 in test [2] turned out to be 0.173 µM. In addition, in test [4], the IC50 came out at 0.404 µM.

Take `Cc1ccc(OC(C)(Cc2ccc(OCCc3nc(-c4ccc(-c5ccccc5)cc4)oc3C)cc2)C(=O)O)cc1` (centres undefined): the figures for the EC50 in test [1] and in test [2] were 0.039 µM and 1.04 µM, respectively. Moreover, the figures for the half-inhibitory concentration (IC50) in test [3] and in test [4] were 0.375 µM and 1.46 µM, respectively.

In the case of `Cc1ccc(OC(C)(Cc2ccc(OCCc3nc(-c4ccccc4)oc3C)cc2)C(=O)O)cc1` (centres undefined), the 50% effective concentration (EC50) in test [1] stood at 0.007 µM; in test [2] it was 0.585 µM. In addition, the IC50 in test [3] is 0.064 µM; in test [4], 1.4 µM.

Regarding `Cc1oc(-c2ccc(-c3ccccc3)cc2)nc1CCOc1ccc(CC(C)(Oc2ccc(C(C)(C)C)cc2)C(=O)O)cc1` (centres undefined), the EC50 in test [1] amounted to 0.26 µM; in test [2] it was 1.17 µM. The compound also yielded a concentration for half-maximal inhibition (IC50) in test [4] of 0.7 µM.

Take `Cc1oc(-c2cccc(-c3ccccc3)c2)nc1CCOc1ccc(CC(C)(Oc2ccc(C(C)(C)C)cc2)C(=O)O)cc1` (centres undefined): the Triglyceride level in the test on Mus musculus is recorded as roughly 39%. Further, the EC50 came to 0.049 µM in test [1] and 0.091 µM in test [2]. In addition, the values for the IC50 in test [3] and in test [4] were 0.133 µM and 0.146 µM, respectively.

In the case of `Cc1ccc(OC(C)(Cc2ccc(OCCc3nc(-c4cccc(-c5ccccc5)c4)oc3C)cc2)C(=O)O)cc1` (centres undefined), the 50% effective concentration (EC50) in test [1] stood at 0.023 µM; in test [2], 0.151 µM. In addition, the IC50 in test [3] turned out to be 0.306 µM; in test [4], 0.53 µM.

In the test with Mus musculus, `Cc1oc(-c2ccccc2)nc1CCOc1ccc(CC(C)(Oc2ccccc2)C(=O)O)cc1` (centres undefined) returned a Triglyceride level of roughly 56%.

On to `Cc1oc(-c2ccc(-c3ccccc3)cc2)nc1CCOc1ccc(CC(C)(Oc2ccccc2)C(=O)O)cc1` (centres undefined), for which, in test [2], the EC50 came to 2.34 µM. For the same compound, in test [4], it took 7.02 µM to reach half-maximal inhibition (IC50).

Values taken from ChEMBL document CHEMBL1138731, “Conversion of human-selective PPARalpha agonists to human/mouse dual agonists: a molecular modeling analysis” (Bioorg Med Chem Lett, 2004).
